{"source": "PubChem BioAssay AID1963830", "about": "(Molecular Pharmacology Branch, DTP, NCI, 2024);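 further: spheroids exposed to the agents for one week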;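 on viability, T/C: 100% = DMSO vehicle control wells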", "system": "922993-354-T-J3-PDC complex spheroid viability", "experiment": "Anticancer human tumor 922993-354-T-J3-PDC patient-derived endometrial carcinoma cell line growth inhibition [POLQ]", "conditions": "for IC50: curve of first compound; for viability, T/C: stronger effect = lower value", "protocol": "Multicellular complex tumor spheroid response to Polymerase (POL) inhibitors (novobiocin, ART-558, RP6685) in combination with a variety of drugs and investigational agents in selected tumor cell lines\nThe POL inhibitors (novobiocin, ART-558, and RP6685) were evaluated both individually and in combination with standard of care and investigational anticancer small molecules within a complex spheroid model of solid tumors. . Complex spheroids include a stromal component modeled by human endothelial cells (HUVEC) and fibroblasts modeled by human mesenchymal stem cells (MSCs). The concentration ranges selected for each drug and investigational agent were based upon clinically achievable concentrations if the clinical Cmax of the agent was known.\nCompounds. The drugs and investigational agents: novobiocin (NSC847541), ART-558 (NSC835418), RP-6685 (NSC848927), peposertib (NSC802822), ceralasertib (NSC780249), elimusertib (NSC800525), camonsertib (NSC841442), AZD-1390 (NSC803789), olaparib (NSC753686), talazoparib (NSC767125), rucaparib (NSC756644), sotorasib (NSC818433), MRTX-1133 (NSC836407), SN-38 (NSC673596), topotecan (NSC609699), epotoside (NSC141540), doxorubicin (NSC123127), gemcitabine (NSC613327), 5-fluorouracil (NSC19893), paclitaxel (NSC125973), vemurafenib (NSC761431), MSA-2 (NSC828583), SN-011 (NSC837082), adavosertib (NSC754352), prexasertib (NSC758257), carboplatin (NSC241240) and oxaliplatin (NSC266046), were obtained from the National Cancer Institute (NCI) Developmental Therapeutics Program Chemical Repository (21). The FDA-approved anticancer drug set is available from the Developmental Therapeutics Program at https://dtp.cancer.gov/organization/dscb/obtaining/. […] The stock solutions were prepared in dimethyl sulfoxide (DMSO, Sigma-Aldrich, St. Louis, MO, cat. D2650), except for the platinum compounds which were prepared in saline (Quality Biological, Gaithersburg, MD, cat. 114-055-101), at 800-fold the tested concentration and stored at -70 degrees C prior to their use. All drugs and investigational agents were tested over a range starting from a high concentration at or near the clinical Cmax and decreasing in half-log increments. If the clinical Cmax for an agent had not been determined, the highest concentration tested was 10 microM, except for SN-38, which was tested at a high concentration of 1 microM.\nCell Culture. All cells were maintained in an incubator at 37 degrees C and 5% CO2 with 95% humidity. The PDC lines were cultured according to standard operating procedures established by the NCI PDMR (https://pdmr.cancer.gov). Table 3 of the manuscript, lists the cell lines along with the number of the three cell types plated to form the mct-spheroids and media for tumor cell growth. After thawing, all PDC lines, except 997537-175-T-J1-PDC and 415267-285-R-J2-PDC, were cultured in Matrigel-coated flasks prepared with a working solution of 1X Ham's F-12 nutrient mix, without supplementation (Thermo Fisher Scientific, cat. 11765054), 100 U/mL penicillin-streptomycin (Thermo Fisher Scientific, cat. 15140122), and 2.5% Matrigel (Corning Inc., Corning, NY, cat. 354248) for the first three passages. The two PDC lines 997537-175-T-J1-PDC and 415267-285-R-J2-PDC were cultured on uncoated flasks. The 857933-349-R-J2-PDC line was cultured in 6C/Colon 1B media containing advanced DMEM/F-12 (Thermo Fisher Scientific, cat. 12634028), 10 mM HEPES (Thermo Fisher Scientific, cat. 15630080), 1X GlutaMAX supplement (Thermo Fisher Scientific, cat. 35050061), 0.1 mg/mL primocin (InvivoGen, San Diego, CA, cat. ant-pm-2), 10% defined fetal bovine serum, heat inactivated (HyClone Laboratories Inc., Logan, UT, cat. SH30070.03HI), 50% L-WRN conditioned media (ATCC, cat. CRL-3276), 1.25 mM N-Acetyl-L-cysteine (Sigma-Aldrich, cat. A9165), 10 mM nicotinamide (Sigma-Aldrich, cat. N0636), 1X B-27 supplement (Thermo Fisher Scientific, cat. 17504044), 1X N-2 supplement (Thermo Fisher Scientific, cat. […]"}
{"smiles": "Nc1ccn(C2OC(CO)C(O)C2(F)F)c(=O)n1", "note": "(configuration not stated) + COC1C(OC(N)=O)C(O)C(Oc2ccc3c(O)c(NC(=O)c4ccc(O)c(CC=C(C)C)c4)c(=O)oc3c2C)OC1(C)C", "values": [{"measurement": "IC50", "setting": "second compound 0.0316 µM", "result": "< 0.0316", "unit": "µM"}, {"measurement": "IC50", "setting": "second compound 0.1 µM", "result": "< 0.0316", "unit": "µM"}, {"measurement": "IC50", "setting": "second compound 0.316 µM", "result": "< 0.0316", "unit": "µM"}, {"measurement": "IC50", "setting": "second compound 1 µM", "result": "< 0.0316", "unit": "µM"}, {"measurement": "IC50", "setting": "second compound 3.16 µM", "result": "< 0.0316", "unit": "µM"}, {"measurement": "IC50", "setting": "second compound 10 µM", "result": "< 0.0316", "unit": "µM"}, {"measurement": "viability, T/C", "setting": "second compound 0.0316 µM, first compound 0.0316 µM", "result": 10.3, "unit": "%"}, {"measurement": "viability, T/C", "setting": "second compound 0.0316 µM, first compound 0.1 µM", "result": 10.7, "unit": "%"}, {"measurement": "viability, T/C", "setting": "second compound 0.0316 µM, first compound 0.316 µM", "result": 10.7, "unit": "%"}, {"measurement": "viability, T/C", "setting": "second compound 0.0316 µM, first compound 1 µM", "result": 10.6, "unit": "%"}, {"measurement": "viability, T/C", "setting": "second compound 0.0316 µM, first compound 3.16 µM", "result": 8.5, "unit": "%"}, {"measurement": "viability, T/C", "setting": "second compound 0.0316 µM, first compound 10 µM", "result": 8.9, "unit": "%"}, {"measurement": "viability, T/C", "setting": "second compound 0.1 µM, first compound 0.0316 µM", "result": 12.4, "unit": "%"}, {"measurement": "viability, T/C", "setting": "second compound 0.1 µM, first compound 0.1 µM", "result": 12.8, "unit": "%"}, {"measurement": "viability, T/C", "setting": "second compound 0.1 µM, first compound 0.316 µM", "result": 10.4, "unit": "%"}, {"measurement": "viability, T/C", "setting": "second compound 0.1 µM, first compound 1 µM", "result": 9.28, "unit": "%"}, {"measurement": "viability, T/C", "setting": "second compound 0.1 µM, first compound 3.16 µM", "result": 9, "unit": "%"}, {"measurement": "viability, T/C", "setting": "second compound 0.1 µM, first compound 10 µM", "result": 8.97, "unit": "%"}, {"measurement": "viability, T/C", "setting": "second compound 0.316 µM, first compound 0.0316 µM", "result": 11.4, "unit": "%"}, {"measurement": "viability, T/C", "setting": "second compound 0.316 µM, first compound 0.1 µM", "result": 11.6, "unit": "%"}, {"measurement": "viability, T/C", "setting": "second compound 0.316 µM, first compound 0.316 µM", "result": 11.5, "unit": "%"}, {"measurement": "viability, T/C", "setting": "second compound 0.316 µM, first compound 1 µM", "result": 8.83, "unit": "%"}, {"measurement": "viability, T/C", "setting": "second compound 0.316 µM, first compound 3.16 µM", "result": 10.4, "unit": "%"}, {"measurement": "viability, T/C", "setting": "second compound 0.316 µM, first compound 10 µM", "result": 9.46, "unit": "%"}, {"measurement": "viability, T/C", "setting": "second compound 1 µM, first compound 0.0316 µM", "result": 11.9, "unit": "%"}, {"measurement": "viability, T/C", "setting": "second compound 1 µM, first compound 0.1 µM", "result": 8.68, "unit": "%"}, {"measurement": "viability, T/C", "setting": "second compound 1 µM, first compound 0.316 µM", "result": 9.63, "unit": "%"}, {"measurement": "viability, T/C", "setting": "second compound 1 µM, first compound 1 µM", "result": 10.4, "unit": "%"}, {"measurement": "viability, T/C", "setting": "second compound 1 µM, first compound 3.16 µM", "result": 7.97, "unit": "%"}, {"measurement": "viability, T/C", "setting": "second compound 1 µM, first compound 10 µM", "result": 9.31, "unit": "%"}, {"measurement": "viability, T/C", "setting": "second compound 3.16 µM, first compound 0.0316 µM", "result": 12.1, "unit": "%"}, {"measurement": "viability, T/C", "setting": "second compound 3.16 µM, first compound 0.1 µM", "result": 8.92, "unit": "%"}, {"measurement": "viability, T/C", "setting": "second compound 3.16 µM, first compound 0.316 µM", "result": 10.3, "unit": "%"}, {"measurement": "viability, T/C", "setting": "second compound 3.16 µM, first compound 1 µM", "result": 10.4, "unit": "%"}, {"measurement": "viability, T/C", "setting": "second compound 3.16 µM, first compound 3.16 µM", "result": 12.1, "unit": "%"}, {"measurement": "viability, T/C", "setting": "second compound 3.16 µM, first compound 10 µM", "result": 8.3, "unit": "%"}, {"measurement": "viability, T/C", "setting": "second compound 10 µM, first compound 0.0316 µM", "result": 8.46, "unit": "%"}, {"measurement": "viability, T/C", "setting": "second compound 10 µM, first compound 0.1 µM", "result": 10.1, "unit": "%"}, {"measurement": "viability, T/C", "setting": "second compound 10 µM, first compound 0.316 µM", "result": 9.42, "unit": "%"}, {"measurement": "viability, T/C", "setting": "second compound 10 µM, first compound 1 µM", "result": 8.26, "unit": "%"}, {"measurement": "viability, T/C", "setting": "second compound 10 µM, first compound 3.16 µM", "result": 8.87, "unit": "%"}, {"measurement": "viability, T/C", "setting": "second compound 10 µM, first compound 10 µM", "result": 8.43, "unit": "%"}]}
